The values below come from patent US11865125B2, “APKC inhibitors and methods of treating a neurodegenerative disease or disorder” (UNIVERSITY OF SOUTH FLORIDA, priority 2016, dated 2024).

Each structure is given as a SMILES string. “Also recorded” adds a separate entry of the source.

In assay [1] the test system is Aβ1-40/42. The experiment in a line: brain Aβ1-40/42 peptide levels in mice. It counts as in vivo, mouse. An excerpt: Mouse Studies. Brain samples were obtained from normal and insulin-resistant mice and monkeys used previously, and includes mice originally used in studies of insulin signaling and resistance in liver: (a) 4-6 month old C57Bl/6 mice used in studies of high-fat-feeding [USF Vivarium] [6]; 4-6 month-old male C57Bl/6 ob/ob and lean ob+ mice (Jackson Labs, Bar Harbor, Maine); and (c) 10-12 month-old C57Bl/6 Het-MλKO mice [USF Vivarium] [8]. […] Where indicated normal mice were given a single SC injection of saline or saline containing 1.5 mg/kg ICAPP to follow time-related alterations in brain signaling factors. Where indicated, mice were treated intraperitoneally (IP) with insulin (1 U/kg body weight) or vehicle 15-min before euthanization by administration of Xylazine/Ketamine, followed by whole body perfusion with phosphate-buffered saline and rapid removal of brain and other tissues.
(§1) Tissue Preparations. As described, mouse brains were hemisected sagittally, and one-half was frozen in liquid N2, stored at −80° C., and samples thereof were homogenized in buffer containing 0.25M sucrose, 20 mM Tris/HCl (pH, 7.5), 2 mmol/l EGTA, 2 mM EDTA, 1 mM phenlysulfonoylfluoride (PMSF), 20 μg/ml leupeptin, 10 μg/ml aprotinin, 2 mM Na4P2O7, 2 mM Na3VO4, 2 mM NaF, and 1 μM microcystin, and then supplemented with 1% TritonX-100, 0.6% Nonidet and 150 mM NaCl.
(§2) Western Analyses. As described, Western analyses were conducted with rabbit antisera or mouse monoclonal antibodies (mMab), using: anti-aPKC (Santa Cruz Biotechnologies, Santa Cruz, CA); anti-phospho-threonine-560/555-PKC-ζ/λ/ι (Invitrogen, Carlsbad, CA); anti-p-serine-256-FoxO1 and anti-FoxO1 (Abnova, Walnut, CA); anti-Akt (mMab), anti-phospho-serine-473-Akt, anti-phospho-serine-9-GSK3P anti-GSK313, anti-phospho-serine-253-FoxO3a, anti-FoxO3a, anti-phospho-serine-256-FoxO1, anti-phospho-serine-193-FoxO4; anti-FoxO1, anti-phospho-serine-2448-mTOR, anti-mTOR, anti-β-amyloid (anti-5-10 kDa-Aβ1-40/42) and anti-amyloid precursor protein (anti-120 kDa-APP) (Cell Signaling Technologies, Danvers, MA); and anti-phospho-serine-202-tau, anti-phospho-threonine-231-tau (Gene Tex, Irvine, CA). Samples from experimental groups were compared on the same blots, and routinely checked with loading controls. Note that: insulin-sensitive 70 kDa aPKC is largely PKC-ζ in mouse brain and orthologous PKC-ι (98% aa homology) in monkey and other primate brains; brain PKC-ζ exists largely as a 50 kDa moiety that, lacking a regulatory domain, is constitutively-active and unresponsive to insulin.
Where indicated, mice were randomly treated with insulin (1 unit/kg/bw i.p.) 15 min before being euthanized by administration of xylazine/ketamine, followed by whole-body perfusion with PBS and rapid removal of brain and other tissues.

The subject of assay [2] is β-secretase (BACE1). The experiment in a line: β-secretase activity (BACE1) in LA1-5s neuroblastoma cells. It counts as cell-based, human. The settings on record: LA1-5s cells. On the procedure: Relative bar values in panel a are mean±SEM of 6 determinations. Asterisks: *, P<0.05; **, P<0.01; ***, P<0.001 (ANOVA). Values in panel b are means of 2-4 determinations.
(§3) Shown here are Mean±SEM (N=4) values relative to the mean initial basal or insulin-stimulated level of indicated immunoreactive protein/peptide. Asterisks: *, P<0.05; **, P<0.01; ***, P<0.001 (ANOVA).
(§4) β-Secretase Activity (BACE1; beta-site APP-cleaving enzyme-1). β-Secretase was measured was measured using a kit from Thermo-Fisher.

The conditions of assay [3]: Het-MλKO mice, reported previously; cited from earlier work.
Assay [4] concerns phospho-thr-231-tau. The experiment in a line: phospho-thr-231-tau levels in LA1-5s neuroblastoma cells. As to conditions: LA1-5s cells. It counts as cell-based, human. Here is the method: as §3, §2
For assay [5], the system named is β-secretase (BACE1). The experiment in a line: brain β-secretase activity (BACE1) in mice. It counts as in vivo, mouse.
Source text: Mouse Studies. Brain samples were obtained from normal and insulin-resistant mice and monkeys used previously, and includes mice originally used in studies of insulin signaling and resistance in liver: (a) 4-6 month old C57Bl/6 mice used in studies of high-fat-feeding [USF Vivarium] [6]; 4-6 month-old male C57Bl/6 ob/ob and lean ob+ mice (Jackson Labs, Bar Harbor, Maine); and (c) 10-12 month-old C57Bl/6 Het-MλKO mice [USF Vivarium] [8]. Males and females were comparably present in experimental groups, and sex didn't appreciably alter combined findings. Hepatic alterations, clinical characteristics and ameliorating effects of liver-selective aPKC inhibitors were reported previously. […] Where indicated, Het-MλKO were injected subcutaneously (SC) once daily for 8 days with saline or 1H-imidazole-4-carboxamide,5-amino]-(2,3-dihydroxy-4-[(phosphono-oxy)methyl]cyclopentane-[1R-(1a,2b,3b,4a)] (ICAPP) 0.4 mg/kg body weight) in saline, to inhibit hepatic aPKC, and thus diminish aPKC-dependent expression of hepatic gluconeogenic and lipogenic enzymes, and thereby reduce serum insulin levels to near-normal. Where indicated normal mice were given a single SC injection of saline or saline containing 1.5 mg/kg ICAPP to follow time-related alterations in brain signaling factors. Where indicated, mice were treated intraperitoneally (IP) with insulin (1 U/kg body weight) or vehicle 15-min before euthanization by administration of Xylazine/Ketamine, followed by whole body perfusion with phosphate-buffered saline and rapid removal of brain and other tissues.
as §1, §4

Where [6] appears, read: normal mice, single s.c. dose of ICAPP 1.5 mg/kg, insulin 1 U/kg i.p. 15 min before killing.

With `NC(=O)c1ncn([C@@H]2C[C@H](COP(=O)(O)O)[C@@H](O)[C@H]2O)c1N` [ICAPP], in assay [1] (Het-MλKO mice, s.c. once daily for 8 days (ICAPP 0.4 mg/kg, ATM 60 mg/kg)), the “resting/basal brain Aβ1-40/42 peptide levels” value was “returned to normal”. Moreover, the “acute insulin-induced increase in brain Aβ1-40/42 levels” value in assay [1] (Het-MλKO mice, s.c. once daily for 8 days (ICAPP 0.4 mg/kg, ATM 60 mg/kg), insulin 1 U/kg i.p. 15 min) is given as “comparable loss in the ability of insulin to acutely increase Aβ1-40/42 levels; also recorded: abrogated”. Besides, in assay [1] (setting [6]), the “insulin-dependent brain Aβ1-40/42 peptide levels” value is recorded as “time-related, well-correlated decreases; also recorded: blocked acute effects of insulin”. Also, the “effect on metformin-induced increase in β-secretase activity” value in assay [2] is recorded as “dose-dependently inhibited”. Further, in assay [2] (200 nM insulin), the “effect on insulin-stimulated β-secretase activity” value was “dose-dependent decreases”. Moreover, the “serum insulin levels / hyperinsulinemia” value in assay [3] is “fully/sufficiently improved; also recorded: reduced serum insulin levels in Het-MλKO mice to normal”. Besides, the “effect on metformin-induced increase in phospho-thr-231-tau” value in assay [4] is “dose-dependently inhibited”. Besides, the “resting/basal brain β-secretase activity” value in assay [5] (Het-MλKO mice, ICAPP 0.4 mg/kg s.c. once daily for 8 days) was “reduced resting/basal β-secretase activity to near-normal levels”. The “acute insulin-stimulated increases in brain β-secretase activity” value in assay [5] (Het-MλKO mice, ICAPP 0.4 mg/kg s.c. once daily for 8 days, insulin 1 U/kg i.p. 15 min) is “fully blocked”. In assay [5] (setting [6]), the “insulin-dependent brain β-secretase activity” value is listed as “time-related, well-correlated decreases; also recorded: blocked acute effects of insulin”.
